System: BR5270 transgenic Caenorhabditis elegans strain
Test: Survival (lifespan) in the preclinical Tau C. elegans model
Type: in vivo
Details: for Survival of C. elegans: 40 μM; for % Alive: BR5270, 40 μM
Protocol: Many neurodegenerative diseases and conditions associated with neuronal insult are characterized by intracellular aggregates of the microtubule associated protein Tau. […] Due to the significant impact on lifespan and locomotion defect produced by this model, time/cost-effective and high throughput acquisition of data, the C. elegans model of tauopathy serves as an advantageous screening tool for the discovery of novel modulators of neurodegeneration.
Cannabinoid botanical drug substances (20 μM, 40 μM, 80 μM) were prepared in accordance with the protocol described in Example 1 above. The exemplary cannabinoid botanical drug substance used in the study of this example includes CBD, CBG and THC present as the major components in a ratio of 50:20:1.
The effect of the two different complex botanical mixtures described above were compared to the comparative control, cannabidiol (40 μM) and a no treatment negative control in the BR5270 transgenic strain. Additional no-treatment negative control and healthspan extension positive control (cannabidiol 40 μM) in wild-type arms served as added comparators. All examinations were performed in triplicate. The impact of three doses of each compound on animal survival and activity levels were examined on days 4, 8, 12, and 16 of animal life. These time points represent the first day of adulthood, early-, mid-, and late-life periods in the C. elegans lifespan.

## C=C(C)[C@@H]1CCC(C)=C[C@H]1c1c(O)cc(CCCCC)cc1O [CBD, cannabidiol]
Day 12 (Table 1b summary)
  Survival of C. elegans: 39
Day 16 (Table 1b summary)
  Survival of C. elegans: 10
Day 4 of animal life
  % Alive: 100%
Day 8 of animal life
  % Alive: 73.17%
Day 12 of animal life
  % Alive: 39.39%
Day 16 of animal life
  % Alive: 9.738%

From patent publication US20260216218A1, “CANNABINOID COMPOSITIONS, AND USES THEREOF IN TREATMENT OF NEURODEGENERATIVE DISEASES OR DISORDERS AND CANCERS” (Biopharmaceutical Research Company, priority 2023, published 2026)
